# Test results: US20180066018A1, “CONFORMATIONALLY STABLE ANALOGS OF THE RESPONSE SELECTIVE C5A AGONIST EP67” (Board Of Regents Of The University Of Nebraska, priority 2015, published 2018)
# Entries after “also recorded” stand apart in the source; their conditions may differ. Non-standard residues stand in square brackets, D forms with d. No end group written: not given here. NMeL = CN[C@@H](CC(C)C)C(=O)O; Aib = CC(C)(N)C(=O)O
# What was measured:
# human monocytes = experiment: Differentiation/maturation of human monocytes into macrophages in vitro (light microscopy); type: cell-based
# Method: To assess the binding of EP67 analogs to APCs and subsequent biological activity on these cells, peptides were assayed for their ability to elicit the activation of monocytes in vitro and to drive the differentiation/maturation of human monocytes into macrophages and subsequently dendritic cells.
# Briefly, monocytes were harvested from human peripheral blood mononuclear cells. The human monocytes were incubated at 37 degrees C. for 24 hrs in media the presence of PBS, 100 μg/ml of EP67, 100 μg/ml of EP144, and 100 μg/ml of EP145. The cells were also incubated with for 48 hrs with sEP67 as a control. The cells were then photographed under light microscopy at 20× or 40× magnification. […] Panels A-C & G are at 20× magnification and Panels D-E are at 40× magnification.
# [1] = test system: human and porcine monocytes; settings: cited from earlier work
# [2] = test system: human and mouse macrophages; settings: cited from earlier work
# [3] = test system: C5aR-bearing macrophages vs. C5aR-bearing neutrophils; experiment: Bioselectivity: cytokine release from macrophages vs. MPO release from neutrophils; type: cell-based; settings: antilog[(−Δmacrophage)−(−Δneutrophil)], relative to C5a set at 1
# Excerpt: 2. Potency. Analog potency will be measured by half maximal effective concentration (EC50); i.e., the concentration of the analog to induce a response halfway between baseline and maximum effect. EC50 values for each analog be determined in two separate assays: cytokine release from macrophages and MPO release from neutrophils.
# In macrophages, we will measure the release of the TH1 cytokines IL-6, TNFα, and INFγ in accordance to our previously published methods (Morgan et al. Enhancement of In Vivo and In Vitro Immune Functions by a Conformationally Biased, Response-Selective Agonist of Human C5a: Implications for a Novel Adjuvant in Vaccine Design. Vaccine 28:463-469, 2010; Morgan et al. A novel adjuvant for vaccine development in the aged. Vaccine 28:8275-8279, 2010). These cytokines are consistently released in readily measurable amounts from macrophages (as well as monocytes and dendritic cells) and will be representative of what we have seen with EP67 and consistent with the nature of the supporting data presented above. Briefly, macrophages will be incubated in the presence of various concentrations of analogs (10, 50, 100, 200 μg/ml) in standard cell culture conditions for 6, 12, and 24, hrs. […]
# 3. […] Analog selectivity for cytokine release from macrophages vs. MPO release from neutrophils will be determined by the following equation: […]
# [4] = NMR (ROESY) determination of cis/trans conformer populations of the Met-Xaa peptide bond; type: physicochemical; settings: in solution
# Excerpt: NMR spectroscopy is the best method for detection of cis/trans prolyl isomerization in a peptide. AAx-Pro cis/trans isomerization (where AAx is any adjacent amino acid residue) is detectable via two resonance frequencies in the NMR spectra per nuclear spin in the proximity of the isomerizing bond. Rotating-Frame NOE Spectroscopy (ROESY) was used to analyze EP67 (150 msec mixing time) in DMSO-d6. Characteristic NOE patterns readily discriminate the resonances arising from the cis and trans conformers allowing for specific assignments of each. Also, the relative populations of each conformer can be determined by integration of the separate peak volumes. Short ^1H-^1H distances (NOEs) between the alpha proton of AAx and the alpha proton of Pro are diagnostic of the cis AAx-Pro peptide bond. On the other hand, an observed NOE between the alpha proton of AAx and the delta protons of Pro are diagnostic of the trans AAx-Pro peptide bond.
# where AA and AA′ are adjacent amino acids.
# Analog peptides can be analyzed by NMR spectroscopy to verify structure and ascertain cis/trans conformer ratios of the Pro-substituted analogs. Special attention should be paid to the angles formed about α-carbon […]) and carbonyl carbon (Ψ and ω bonds) in the Met residue to the N-terminus of the substituted Pro residues. […]
# [5] = 100 μg/ml, 37 degrees C., 24 hrs
molecule,measurement,setting,value
M(MeL)RFPDaYKS (M[NMeL]RFPD[dA]YKS) [sEP67],differentiation of human monocytes to macrophages (adhesion to substrate and flattening),"human monocytes; control peptide, 48 hrs",do not exhibit this phenotype
Tyr-Ser-Phe-Lys-Asp-Met-Pro-(MethylLeu)-D-Ala-Arg (YSFKDMP[NMeL][dA]R) [EP67],necrosis and apoptosis of the macrophages/dendritic cells once generated,[1],decreases necrosis and apoptosis
same,differentiation of monocytes to macrophages and dendritic cells,[1]; human and porcine monocytes,induces the differentiation of human and porcine monocytes to macrophages and dendritic cells
same,differentiation of human monocytes to macrophages (adhesion to substrate and flattening),human monocytes; [5],monocytes mature into macrophages
same,"release of Th1 cytokines (IL-1β, IL-6, IL-8, IL-12, TNFα, IFNγ)",[2],induces the release of T helper type 1 (Th1) cytokines
same,"release of Th2 cytokines (IL-2, IL-4, IL-5, IL-10)",[2],few T helper type 2 (Th2) cytokines
same,selectivity factor for macrophage activity over that of neutrophils,[3],2951
"YSFKDM(Aib)LaR (YSFKDM[Aib]L[dA]R-OH) [EP144, EP67 analog with Pro substituted with 2-aminoisobutyric acid and MeL with Leu]",differentiation of human monocytes to macrophages (adhesion to substrate and flattening),human monocytes; [5],drive the differentiation of human monocytes to macrophages; also recorded: monocytes mature into macrophages
same,cis:trans conformer ratio,[4],all-trans
"YSFKDM(dmP)(MeL)aR (YSFKDMXLAR; 5,5'-dimethylproline, N-methyl-Leu, D-Ala; MOD_RES (7)..(7) Xaa is 5,5′-dimethylproline; MOD_RES (8)..(8) N-methyl Leu; MOD_RES (9)..(9) D-Ala) [EP145, EP67 analog with Pro substituted with 5,5′-dimethylproline]",differentiation of human monocytes to macrophages (adhesion to substrate and flattening),human monocytes; [5],drive the differentiation of human monocytes to macrophages; also recorded: monocytes mature into macrophages
"C5a: short (74 residues in human) glycoprotein generated by enzymatic cleavage of complement C5 (protein, UniProt P01031 678-751, looked up, C5a anaphylatoxin, short (74 residues in human) glycoprotein generated by enzymatic cleavage of complement C5) C5a anaphylatoxin: TLQKKIEEIAAKYKHSVVKKCCYDGACVNNDETCEQRAARISLGPRCIKAFTECCVVASQLRANISHKDMQLGR",selectivity factor for macrophage activity over that of neutrophils,[3],1
